# PubChem BioAssay (NCI)
#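 Tested at 5 concentrations; 48 h exposure; 96-well plates; endpoints linearly interpolated, else capped at highest concentration. TGI denotes the concentration required for complete inhibition of growth.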
# Assays:
# Test in all cases: growth of human tumour cells (NCI), 48 h
# CCRF-CEM leukemia = tested on: CCRF-CEM leukemia
# PC-3 prostate = tested on: PC-3 prostate
# TK-10 renal = tested on: TK-10 renal
# SK-MEL-2 melanoma = tested on: SK-MEL-2 melanoma
# EKVX NSCLC = tested on: EKVX NSCLC
# HL-60(TB) leukemia = tested on: HL-60(TB) leukemia
# NCI-H522 lung = tested on: NCI-H522 lung
# SK-OV-3 ovarian = tested on: SK-OV-3 ovarian
# HOP-62 NSCLC = tested on: HOP-62 NSCLC
# NCI-H23 lung = tested on: NCI-H23 lung
# NCI/ADR-RES ovarian = tested on: NCI/ADR-RES ovarian
# HT29 colon = tested on: HT29 colon
# RPMI-8226 leukemia = tested on: RPMI-8226 leukemia
# SF-539 CNS = tested on: SF-539 CNS
# HCT-116 colon = tested on: HCT-116 colon
# MDA-N = tested on: MDA-N
# BT-549 breast = tested on: BT-549 breast
# MDA-MB-231 breast = tested on: MDA-MB-231 breast
# ACHN renal = tested on: ACHN renal
# SK-MEL-28 melanoma = tested on: SK-MEL-28 melanoma
# A549 NSCLC = tested on: A549 NSCLC
# OVCAR-3 ovarian = tested on: OVCAR-3 ovarian
# UACC-257 melanoma = tested on: UACC-257 melanoma
# MDA-MB-435 = tested on: MDA-MB-435
# SW-620 colon = tested on: SW-620 colon
# UO-31 renal = tested on: UO-31 renal
# K-562 leukemia = tested on: K-562 leukemia
# HCT-15 colon = tested on: HCT-15 colon
# SNB-19 CNS = tested on: SNB-19 CNS
# SNB-75 CNS = tested on: SNB-75 CNS
# SR leukemia = tested on: SR leukemia
# 786-0 renal = tested on: 786-0 renal
# OVCAR-8 ovarian = tested on: OVCAR-8 ovarian
# CAKI-1 renal = tested on: CAKI-1 renal
# SF-268 CNS = tested on: SF-268 CNS
# SF-295 CNS = tested on: SF-295 CNS
# IGROV1 ovarian = tested on: IGROV1 ovarian
# DU-145 prostate = tested on: DU-145 prostate
# UACC-62 melanoma = tested on: UACC-62 melanoma
# KM12 colon = tested on: KM12 colon
# SK-MEL-5 melanoma = tested on: SK-MEL-5 melanoma
# HOP-92 NSCLC = tested on: HOP-92 NSCLC
# MALME-3M melanoma = tested on: MALME-3M melanoma
# OVCAR-5 ovarian = tested on: OVCAR-5 ovarian
# OVCAR-4 ovarian = tested on: OVCAR-4 ovarian
# HCC-2998 colon = tested on: HCC-2998 colon
# HS 578T breast = tested on: HS 578T breast
# SN12C renal = tested on: SN12C renal
# U251 CNS = tested on: U251 CNS
# COLO 205 colon = tested on: COLO 205 colon
# NCI-H226 lung = tested on: NCI-H226 lung
# NCI-H460 lung = tested on: NCI-H460 lung
# M14 melanoma = tested on: M14 melanoma
# LOX IMVI melanoma = tested on: LOX IMVI melanoma
# MCF7 breast = tested on: MCF7 breast
# MOLT-4 leukemia = tested on: MOLT-4 leukemia
# T-47D breast = tested on: T-47D breast
# RXF 393 renal = tested on: RXF 393 renal
# A498 renal = tested on: A498 renal
compound,measurement,setting,value
Oc1ccccc1-n1nc2ccc3nonc3c2n1,TGI,CCRF-CEM leukemia,> 100 µM
same,TGI,PC-3 prostate,> 100 µM
same,TGI,TK-10 renal,> 100 µM
same,TGI,SK-MEL-2 melanoma,> 100 µM
same,TGI,EKVX NSCLC,> 100 µM
same,TGI,HL-60(TB) leukemia,> 100 µM
same,TGI,NCI-H522 lung,> 100 µM
same,TGI,SK-OV-3 ovarian,> 100 µM
same,TGI,HOP-62 NSCLC,> 100 µM
same,TGI,NCI-H23 lung,> 100 µM
same,TGI,NCI/ADR-RES ovarian,> 100 µM
same,TGI,HT29 colon,> 100 µM
same,TGI,RPMI-8226 leukemia,> 100 µM
same,TGI,SF-539 CNS,> 100 µM
same,TGI,HCT-116 colon,> 100 µM
same,TGI,MDA-N,> 100 µM
same,TGI,BT-549 breast,> 100 µM
same,TGI,MDA-MB-231 breast,> 100 µM
same,TGI,ACHN renal,> 100 µM
same,TGI,SK-MEL-28 melanoma,> 100 µM
same,TGI,A549 NSCLC,> 100 µM
same,TGI,OVCAR-3 ovarian,> 100 µM
same,TGI,UACC-257 melanoma,> 100 µM
same,TGI,MDA-MB-435,> 100 µM
same,TGI,SW-620 colon,> 100 µM
same,TGI,UO-31 renal,> 100 µM
same,TGI,K-562 leukemia,> 100 µM
same,TGI,HCT-15 colon,> 100 µM
same,TGI,SNB-19 CNS,> 100 µM
same,TGI,SNB-75 CNS,> 100 µM
same,TGI,SR leukemia,> 100 µM
same,TGI,786-0 renal,> 100 µM
same,TGI,OVCAR-8 ovarian,> 100 µM
same,TGI,CAKI-1 renal,> 100 µM
same,TGI,SF-268 CNS,> 100 µM
same,TGI,SF-295 CNS,> 100 µM
same,TGI,IGROV1 ovarian,> 100 µM
same,TGI,DU-145 prostate,> 100 µM
same,TGI,UACC-62 melanoma,> 100 µM
same,TGI,KM12 colon,> 100 µM
same,TGI,SK-MEL-5 melanoma,> 100 µM
same,TGI,HOP-92 NSCLC,> 100 µM
same,TGI,MALME-3M melanoma,> 100 µM
same,TGI,OVCAR-5 ovarian,> 100 µM
same,TGI,OVCAR-4 ovarian,> 100 µM
same,TGI,HCC-2998 colon,> 100 µM
same,TGI,HS 578T breast,> 100 µM
same,TGI,SN12C renal,> 100 µM
same,TGI,U251 CNS,> 100 µM
same,TGI,COLO 205 colon,> 100 µM
same,TGI,NCI-H226 lung,> 100 µM
same,TGI,NCI-H460 lung,> 100 µM
same,TGI,M14 melanoma,> 100 µM
same,TGI,LOX IMVI melanoma,> 100 µM
same,TGI,MCF7 breast,> 100 µM
same,TGI,MOLT-4 leukemia,> 100 µM
same,TGI,T-47D breast,> 100 µM
C=C(CC)C[C@@H]1C[C@]2(C(=O)OC)c3[nH]c4ccccc4c3CCN2C1=O,TGI,PC-3 prostate,42.8 µM
same,TGI,TK-10 renal,> 100 µM
same,TGI,SK-MEL-2 melanoma,33.1 µM
same,TGI,EKVX NSCLC,85.5 µM
same,TGI,RXF 393 renal,27.7 µM
same,TGI,HL-60(TB) leukemia,82.5 µM
same,TGI,NCI-H522 lung,36.7 µM
same,TGI,SK-OV-3 ovarian,63.9 µM
same,TGI,HOP-62 NSCLC,34 µM
same,TGI,NCI-H23 lung,49.7 µM
same,TGI,NCI/ADR-RES ovarian,51.1 µM
same,TGI,HT29 colon,42 µM
same,TGI,SF-539 CNS,30.9 µM
same,TGI,HCT-116 colon,29.6 µM
same,TGI,MDA-N,35.5 µM
same,TGI,BT-549 breast,43.7 µM
same,TGI,MDA-MB-231 breast,54.7 µM
same,TGI,ACHN renal,76 µM
same,TGI,SK-MEL-28 melanoma,39.9 µM
same,TGI,A549 NSCLC,32.4 µM
same,TGI,OVCAR-3 ovarian,27.9 µM
same,TGI,UACC-257 melanoma,41.9 µM
same,TGI,MDA-MB-435,43.7 µM
same,TGI,SW-620 colon,35.9 µM
same,TGI,UO-31 renal,38.6 µM
same,TGI,K-562 leukemia,58.1 µM
same,TGI,HCT-15 colon,34.5 µM
same,TGI,SNB-19 CNS,> 100 µM
same,TGI,SNB-75 CNS,66.2 µM
same,TGI,SR leukemia,> 100 µM
same,TGI,786-0 renal,33.5 µM
same,TGI,OVCAR-8 ovarian,> 100 µM
same,TGI,CAKI-1 renal,48.6 µM
same,TGI,SF-268 CNS,51.9 µM
same,TGI,SF-295 CNS,31.1 µM
same,TGI,IGROV1 ovarian,58 µM
same,TGI,DU-145 prostate,> 100 µM
same,TGI,UACC-62 melanoma,36.2 µM
same,TGI,KM12 colon,58.9 µM
same,TGI,SK-MEL-5 melanoma,31.3 µM
same,TGI,HOP-92 NSCLC,38.1 µM
same,TGI,MALME-3M melanoma,72.5 µM
same,TGI,A498 renal,41.1 µM
same,TGI,OVCAR-5 ovarian,56 µM
same,TGI,OVCAR-4 ovarian,> 100 µM
same,TGI,HCC-2998 colon,34.1 µM
same,TGI,HS 578T breast,41.1 µM
same,TGI,SN12C renal,41.3 µM
same,TGI,U251 CNS,40.8 µM
same,TGI,COLO 205 colon,> 100 µM
same,TGI,NCI-H460 lung,53.6 µM
same,TGI,M14 melanoma,36.5 µM
same,TGI,LOX IMVI melanoma,33.5 µM
same,TGI,MCF7 breast,47.2 µM
same,TGI,MOLT-4 leukemia,> 100 µM
same,TGI,T-47D breast,> 100 µM
